Source: the NIST ThermoML archive (doi:10.1016/j.jct.2016.02.009)

Key:
[1] = Molar enthalpy of transition or fusion; details: Crystal 1; Adiabatic calorimetry
[2] = for molar entropy: 101.33 kPa, Small (less than 1 g) adiabatic calorimetry; for vapor or sublimation pressure: Calculated from knudsen effusion weight loss; for Triple point temperature: Adiabatic calorimetry

CCCCCCCCCCCCCCCCn1cc[n+](C)c1.O=S(=O)([N-]S(=O)(=O)C(F)(F)F)C(F)(F)F
Details | Molar enthalpy of transition or fusion [kcal/mol]
[1] | 12.26

[2]
Details | molar entropy [J/K/mol] | vapor or sublimation pressure [kPa]
5 K, Crystal 2 | 1.23 | –
10 K, Crystal 2 | 7.81 | –
15 K, Crystal 2 | 19.15 | –
20 K, Crystal 2 | 33.76 | –
25 K, Crystal 2 | 50.4 | –
30 K, Crystal 2 | 68.27 | –
35 K, Crystal 2 | 86.83 | –
40 K, Crystal 2 | 105.7 | –
45 K, Crystal 2 | 124.7 | –
50 K, Crystal 2 | 143.7 | –
60 K, Crystal 2 | 181.5 | –
70 K, Crystal 2 | 218.5 | –
80 K, Crystal 2 | 254.6 | –
90 K, Crystal 2 | 289.6 | –
100 K, Crystal 2 | 323.6 | –
110 K, Crystal 2 | 356.7 | –
120 K, Crystal 2 | 388.9 | –
130 K, Crystal 2 | 420.2 | –
140 K, Crystal 2 | 450.7 | –
150 K, Crystal 2 | 480.4 | –
160 K, Crystal 2 | 509.6 | –
170 K, Crystal 2 | 538.1 | –
180 K, Crystal 2 | 566.1 | –
190 K, Crystal 2 | 593.7 | –
200 K, Crystal 2 | 621 | –
210 K, Crystal 2 | 647.9 | –
220 K, Crystal 2 | 674.5 | –
230 K, Crystal 2 | 701.1 | –
240 K, Crystal 2 | 727.5 | –
250 K, Crystal 2 | 754.1 | –
260 K, Crystal 2 | 780.8 | –
270 K, Crystal 2 | 808.1 | –
280 K, Crystal 2 | 836.2 | –
290 K, Crystal 2 | 866.1 | –
298.15 K, Crystal 2 | 893.4 | –
300 K, Crystal 2 | 900.3 | –
305.5 K, Crystal 1 | 922.5 | –
305.5 K, Crystal 2 | 922.5 | –
310 K, Crystal 1 | 941 | –
319.25 K, Crystal 1 | 971.3 | –
319.25 K, Liquid | 1132 | –
320 K, Liquid | 1134 | –
330 K, Liquid | 1164 | –
340 K, Liquid | 1194 | –
350 K, Liquid | 1222 | –
360 K, Liquid | 1251 | –
370 K, Liquid | 1279 | –
508.07 K, Liquid | – | 3.21e-05
513.07 K, Liquid | – | 4.5e-05
518.07 K, Liquid | – | 6.31e-05
523.07 K, Liquid | – | 8.75e-05
528.06 K, Liquid | – | 0.0001197
533.07 K, Liquid | – | 0.0001644

[2]
Details | Triple point temperature [K]
Crystal 1 | 319.25
Crystal 2 | 305.5

CCCCCCCCCCCCCCn1cc[n+](C)c1.O=S(=O)([N-]S(=O)(=O)C(F)(F)F)C(F)(F)F
Details | Molar enthalpy of transition or fusion [kcal/mol]
[1] | 10.8

[2]
Details | molar entropy [J/K/mol] | vapor or sublimation pressure [kPa]
5 K, Crystal 2 | 1.17 | –
10 K, Crystal 2 | 7.53 | –
15 K, Crystal 2 | 18.57 | –
20 K, Crystal 2 | 32.77 | –
25 K, Crystal 2 | 48.94 | –
30 K, Crystal 2 | 66.22 | –
35 K, Crystal 2 | 84.11 | –
40 K, Crystal 2 | 102.3 | –
45 K, Crystal 2 | 120.5 | –
50 K, Crystal 2 | 138.7 | –
60 K, Crystal 2 | 174.7 | –
70 K, Crystal 2 | 209.8 | –
80 K, Crystal 2 | 244 | –
90 K, Crystal 2 | 277.1 | –
100 K, Crystal 2 | 309.3 | –
110 K, Crystal 2 | 340.5 | –
120 K, Crystal 2 | 370.8 | –
130 K, Crystal 2 | 400.3 | –
140 K, Crystal 2 | 429.1 | –
150 K, Crystal 2 | 457.2 | –
160 K, Crystal 2 | 484.6 | –
170 K, Crystal 2 | 511.6 | –
180 K, Crystal 2 | 538.1 | –
190 K, Crystal 2 | 564.2 | –
200 K, Crystal 2 | 589.9 | –
210 K, Crystal 2 | 615.5 | –
220 K, Crystal 2 | 640.8 | –
230 K, Crystal 2 | 666 | –
240 K, Crystal 2 | 691.3 | –
250 K, Crystal 2 | 716.7 | –
260 K, Crystal 2 | 742.5 | –
270 K, Crystal 2 | 769.1 | –
280 K, Crystal 2 | 797.3 | –
290 K, Crystal 2 | 829.7 | –
295.5 K, Crystal 1 | 850.6 | –
295.5 K, Crystal 2 | 850.6 | –
298.15 K, Crystal 1 | 860.5 | –
300 K, Crystal 1 | 866 | –
308.77 K, Crystal 1 | 891.2 | –
308.77 K, Liquid | 1037 | –
310 K, Liquid | 1041 | –
320 K, Liquid | 1070 | –
330 K, Liquid | 1098 | –
340 K, Liquid | 1125 | –
350 K, Liquid | 1152 | –
360 K, Liquid | 1179 | –
370 K, Liquid | 1205 | –
498.07 K, Liquid | – | 2.76e-05
503.06 K, Liquid | – | 3.85e-05
508.05 K, Liquid | – | 5.39e-05
513.05 K, Liquid | – | 7.45e-05
518.04 K, Liquid | – | 0.0001018
523.05 K, Liquid | – | 0.0001397
528.05 K, Liquid | – | 0.0001898

[2]
Details | Triple point temperature [K]
Crystal 1 | 308.77
Crystal 2 | 295.5

CCCCCCCCCCn1cc[n+](C)c1.O=S(=O)([N-]S(=O)(=O)C(F)(F)F)C(F)(F)F
Details | Molar enthalpy of transition or fusion [kcal/mol]
[1] | 6.852

[2]
Details | molar entropy [J/K/mol]
5 K, Crystal 2 | 1.18
10 K, Crystal 2 | 7.33
15 K, Crystal 2 | 17.93
20 K, Crystal 2 | 31.5
25 K, Crystal 2 | 46.8
30 K, Crystal 2 | 63.01
35 K, Crystal 2 | 79.61
40 K, Crystal 2 | 96.26
50 K, Crystal 2 | 129.2
60 K, Crystal 2 | 161.4
70 K, Crystal 2 | 192.7
80 K, Crystal 2 | 222.8
90 K, Crystal 2 | 252
100 K, Crystal 2 | 280.3
110 K, Crystal 2 | 307.8
120 K, Crystal 2 | 334.4
130 K, Crystal 2 | 360.4
140 K, Crystal 2 | 385.8
150 K, Crystal 2 | 410.5
160 K, Crystal 2 | 434.8
170 K, Crystal 2 | 458.6
180 K, Crystal 2 | 482.1
190 K, Crystal 2 | 505.4
200 K, Crystal 2 | 528.6
210 K, Crystal 2 | 551.8
220 K, Crystal 2 | 575.2
230 K, Crystal 2 | 599.3
240 K, Crystal 2 | 625.2
249 K, Crystal 1 | 653.6
249 K, Crystal 2 | 653.6
252 K, Crystal 1 | 662.4
260 K, Crystal 1 | 682.3
270 K, Crystal 1 | 707.5
277.33 K, Crystal 1 | 726.3
277.33 K, Liquid | 829.8
280 K, Liquid | 836.9
290 K, Liquid | 863.1
298.15 K, Liquid | 883.9
300 K, Liquid | 888.6
310 K, Liquid | 913.5
320 K, Liquid | 937.9
330 K, Liquid | 961.7
340 K, Liquid | 985.1
350 K, Liquid | 1008
360 K, Liquid | 1031
370 K, Liquid | 1053

[2]
Details | Triple point temperature [K]
Crystal 1 | 277.33
Crystal 2 | 249
